Source: US20250059220A1, “SUBSTITUTED BENZOTHIOPHENE DERIVATIVES AND METHODS OF USE THEREOF” (Merck Sharp & Dohme LLC, priority 2021, published 2025)

Assays:
[1] = target: human PTPN2 (1-387) (Homo sapiens (Human), UniProt P17706); assay: Human PTPN2 Biochemical Assay; settings: DiFMUP substrate
How it was run: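 Fluorogenic DiFMUP hydrolysis (1 h, room temperature, read ex 360/em 460 nm) after 30 min compound preincubation with PTPN2 residues 1-387, in 50 mM Tris pH 7.4, 150 mM NaCl, 0.01% Tween20, 0.5 mM DTT. Effects scaled between buffer and enzyme controls, 4-parameter fit gives EC50.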

[2] = target: human PTPN1 (1-435) (Homo sapiens (Human), UniProt P18031); assay: Human PTPN1 Biochemical Assay; settings: DiFMUP substrate, read-out: PTP1B IC50
Chain of human PTPN1 (1-435) (P18031 whole entry): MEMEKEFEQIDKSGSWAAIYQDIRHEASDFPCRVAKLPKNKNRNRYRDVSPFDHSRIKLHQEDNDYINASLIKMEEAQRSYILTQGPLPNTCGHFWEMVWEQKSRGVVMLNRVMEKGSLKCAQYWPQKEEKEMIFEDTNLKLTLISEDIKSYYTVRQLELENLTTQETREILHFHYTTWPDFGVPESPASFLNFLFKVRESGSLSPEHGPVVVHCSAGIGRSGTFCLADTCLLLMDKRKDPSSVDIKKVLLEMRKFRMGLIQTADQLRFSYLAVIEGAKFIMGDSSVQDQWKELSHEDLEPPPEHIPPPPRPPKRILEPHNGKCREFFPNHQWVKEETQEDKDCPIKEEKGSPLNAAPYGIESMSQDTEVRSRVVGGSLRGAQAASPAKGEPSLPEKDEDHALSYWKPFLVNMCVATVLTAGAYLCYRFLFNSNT
How it was run: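 Read-out is DiFMUP hydrolysis fluorescence (360 nm excitation, 460 nm emission) after 1 h at room temperature, following 30 min enzyme–compound preincubation.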

Chain of human PTPN2 (1-387) (P17706 other isoform, or with tags, fused parts or gaps): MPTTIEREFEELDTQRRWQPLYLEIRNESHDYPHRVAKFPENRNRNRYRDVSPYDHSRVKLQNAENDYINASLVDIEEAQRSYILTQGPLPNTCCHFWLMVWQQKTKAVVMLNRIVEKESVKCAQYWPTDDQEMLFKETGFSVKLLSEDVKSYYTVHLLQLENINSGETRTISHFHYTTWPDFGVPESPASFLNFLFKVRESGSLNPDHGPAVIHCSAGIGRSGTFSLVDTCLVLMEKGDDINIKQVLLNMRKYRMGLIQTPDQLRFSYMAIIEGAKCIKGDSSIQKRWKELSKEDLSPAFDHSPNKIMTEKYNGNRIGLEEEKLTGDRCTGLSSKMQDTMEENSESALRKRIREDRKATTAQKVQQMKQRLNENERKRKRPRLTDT

Row | SMILES | IC50 [1] [µM] | IC50 [2] [µM]
1 | Cc1c(C(F)(F)P(=O)(O)O)sc2c(OCCCS(N)(=O)=O)cc(-c3nc[nH]n3)cc12 [Compound 443] | 0.00617 | 0.0051
2 | CS(=O)(=O)c1ccc(COc2cc(-c3nc[nH]n3)cc3c(Br)c(C(F)(F)P(=O)(O)O)sc23)cc1 [Compound 444] | < 0.0025 | < 0.0025
3 | CS(=O)(=O)CCCOc1cc(C(N)=O)cc2c(C(F)(F)F)c(C(F)(F)P(=O)(O)O)sc12 [Compound 445, ((5-carbamoyl-7-(3-(methylsulfonyl)propoxy)-3-(trifluoromethyl)benzo[b]thiophen-2-yl)difluoromethyl)phosphonic acid] | 0.0155 | 0.0127
4 | NC(=O)c1cc(OCCCS(N)(=O)=O)c2sc(C(F)(F)P(=O)(O)O)c(C(F)(F)F)c2c1 [Compound 446] | 0.0147 | 0.0182
5 | CCCC(CO)Oc1cc(C(N)=O)cc2c(Br)c(C(F)(F)P(=O)(O)O)sc12 (centres unmarked) [Compound 447, ((3-bromo-5-carbamoyl-7-((1-hydroxypentan-2-yl)oxy)benzo[b]thiophen-2-yl)difluoromethyl)phosphonic acid] | 0.5 | 0.231
6 | N#CCc1cc(OCCCC(F)(F)F)c2sc(C(F)(F)P(=O)(O)O)c(Br)c2c1 [Compound 448, ((3-bromo-5-(cyanomethyl)-7-(4,4,4-trifluorobutoxy)benzo[b]thiophen-2-yl)difluoromethyl)phosphonic acid] | 0.316 | 0.23
7 | CC(=O)NCc1cc(OCCCC(F)(F)F)c2sc(C(F)(F)P(=O)(O)O)c(Br)c2c1 [Compound 449, ((5-(acetamidomethyl)-3-bromo-7-(4,4,4-trifluorobutoxy)benzo[b]thiophen-2-yl)difluoromethyl)phosphonic acid] | 1.19 | 0.812
8 | CS(=O)(=O)NCc1cc(OCCCC(F)(F)F)c2sc(C(F)(F)P(=O)(O)O)c(Br)c2c1 [Compound 450, ((3-bromo-5-(methylsulfonamidomethyl)-7-(4,4,4-trifluorobutoxy)benzo[b]thiophen-2-yl)difluoromethyl)phosphonic acid] | 0.227 | 0.175
9 | Cc1c(C(F)(F)P(=O)(O)O)sc2c(OCCCS(C)(=O)=O)cc(-c3c[nH]nn3)cc12 [Compound 451, (difluoro(3-methyl-7-(3-(methylsulfonyl)propoxy)-5-(1H-1,2,3-triazol-4-yl)benzo[b]thiophen-2-yl)methyl)phosphonic acid] | 0.0146 | 0.0165
10 | Cc1ncc(-c2cc(OCCCC(F)(F)F)c3sc(C(F)(F)P(=O)(O)O)c(Br)c3c2)[nH]1 [Compound 452, ((3-bromo-5-(2-methyl-1H-imidazol-5-yl)-7-(4,4,4-trifluorobutoxy)benzo[b]thiophen-2-yl)difluoromethyl)phosphonic acid] | 0.0639 | 0.0719
11 | CS(=O)(=O)CCCOc1cc(C(N)=O)cc2cc(C(F)(F)P(=O)(O)O)sc12 [Compound 453, ammonium ((5-carbamoyl-7-(3-(methylsulfonyl)propoxy)benzo[b]thiophen-2-yl)difluoromethyl)phosphonate] | 9.58 | 7.86
12 | CS(=O)(=O)CCCOc1cc(C(N)=O)cc2c(C(F)F)c(C(F)(F)P(=O)(O)O)sc12 [Compound 454, ((5-carbamoyl-3-(difluoromethyl)-7-(3-(methylsulfonyl)propoxy)benzo[b]thiophen-2-yl)difluoromethyl)phosphonic acid] | 0.0245 | 0.0403
13 | N#Cc1c(C(F)(F)P(=O)(O)O)sc2c(OCCCS(N)(=O)=O)cc(-c3c[nH]nn3)cc12 [Compound 455, ((3-cyano-7-(3-sulfamoylpropoxy)-5-(1H-1,2,3-triazol-4-yl)benzo[b]thiophen-2-yl)difluoromethyl)phosphonic acid] | 0.00269 | 0.0036
14 | CC(C)(O)CCCOc1cc(C(N)=O)cc2c(C(F)(F)F)c(C(F)(F)P(=O)(O)O)sc12 [Compound 456, ((5-carbamoyl-7-((4-hydroxy-4-methylpentyl)oxy)-3-(trifluoromethyl)benzo[b]thiophen-2-yl)difluoromethyl)phosphonic acid] | 0.0141 | 0.0232
15 | N#Cc1c(C(F)(F)P(=O)(O)O)sc2c(OCCCS(N)(=O)=O)cc(-c3nc[nH]n3)cc12 [Compound 457, ((3-cyano-7-(3-sulfamoylpropoxy)-5-(1H-1,2,4-triazol-3-yl)benzo[b]thiophen-2-yl)difluoromethyl)phosphonic acid] | 0.0025 | 0.0025
16 | CNS(=O)(=O)c1cc(OCCCC(F)(F)F)c2sc(C(F)(F)P(=O)(O)O)c(Br)c2c1 [Compound 459, ((3-bromo-5-(N-methylsulfamoyl)-7-(4,4,4-trifluorobutoxy)benzo[b]thiophen-2-yl)difluoromethyl)phosphonic acid] | 0.893 | 0.616
17 | CS(=O)(=O)CCCOc1cc(-c2cc(=O)cc[nH]2)cc2c(Br)c(C(F)(F)P(=O)(O)O)sc12 [Compound 460, ((3-bromo-7-(3-(methylsulfonyl)propoxy)-5-(4-oxo-1,4-dihydropyridin-2-yl)benzo[b]thiophen-2-yl)difluoromethyl)phosphonic acid] | 0.0025 | 0.0025
18 | CS(=O)(=O)c1ccc(COc2cc(C(N)=O)cc3c(Br)c(C(F)(F)P(=O)(O)O)sc23)c(C#N)c1 [Compound 463, ((3-bromo-5-carbamoyl-7-((2-cyano-4-(methylsulfonyl)benzyl)oxy)benzo[b]thiophen-2-yl)difluoromethyl)phosphonic acid] | 0.0067 | 0.0148
19 | NC(=O)c1cc(OCC(F)CC(F)(F)F)c2sc(C(F)(F)P(=O)(O)O)c(Br)c2c1 (centres unmarked) [Compound 464, ((3-bromo-5-carbamoyl-7-(2,4,4,4-tetrafluorobutoxy)benzo[b]thiophen-2-yl)difluoromethyl)phosphonic acid] | 0.0397 | 0.0426
